Data taken from patent US12595248B2, “PRMT5 inhibitors” (Merck Sharp & Dohme LLC, priority 2019, dated 2026).
Like-named read-outs stand apart in the source and are kept apart here.

What was measured:
[1] = target: T1, PRMT5-MEP50 enzyme complex (Homo sapiens, UniProt O14744); assay: PRMT5-MEP50 Enzyme Methylation Assay (Version B); format: biochemical
T1 construct: Full-length (FL)-PRMT5-MEP50 enzyme complex (recombinant proteins from baculovirus-transfected Sf21 cells: FL-PRMT5; MW=73837 kDa and FL-MEP50; MW=38614); made in house; host or cells: baculovirus-transfected Sf21 cells
T1 sequence (O14744 whole entry): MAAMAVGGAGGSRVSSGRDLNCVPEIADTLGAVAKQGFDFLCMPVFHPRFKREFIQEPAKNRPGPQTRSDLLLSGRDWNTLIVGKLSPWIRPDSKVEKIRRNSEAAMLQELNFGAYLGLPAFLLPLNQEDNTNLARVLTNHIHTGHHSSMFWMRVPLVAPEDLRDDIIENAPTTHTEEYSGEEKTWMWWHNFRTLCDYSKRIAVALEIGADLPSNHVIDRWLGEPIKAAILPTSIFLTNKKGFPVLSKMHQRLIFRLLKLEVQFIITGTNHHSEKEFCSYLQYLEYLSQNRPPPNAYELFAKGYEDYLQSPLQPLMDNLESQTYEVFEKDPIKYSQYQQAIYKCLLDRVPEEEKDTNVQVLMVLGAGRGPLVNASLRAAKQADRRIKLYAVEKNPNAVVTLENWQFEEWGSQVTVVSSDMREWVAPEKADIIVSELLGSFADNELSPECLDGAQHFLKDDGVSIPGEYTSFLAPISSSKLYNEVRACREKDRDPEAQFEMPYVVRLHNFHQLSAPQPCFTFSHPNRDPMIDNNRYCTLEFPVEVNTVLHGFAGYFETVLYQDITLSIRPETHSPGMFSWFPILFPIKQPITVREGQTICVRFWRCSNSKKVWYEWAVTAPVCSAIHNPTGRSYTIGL
T1 sequence (Q9BQA1 whole entry partner): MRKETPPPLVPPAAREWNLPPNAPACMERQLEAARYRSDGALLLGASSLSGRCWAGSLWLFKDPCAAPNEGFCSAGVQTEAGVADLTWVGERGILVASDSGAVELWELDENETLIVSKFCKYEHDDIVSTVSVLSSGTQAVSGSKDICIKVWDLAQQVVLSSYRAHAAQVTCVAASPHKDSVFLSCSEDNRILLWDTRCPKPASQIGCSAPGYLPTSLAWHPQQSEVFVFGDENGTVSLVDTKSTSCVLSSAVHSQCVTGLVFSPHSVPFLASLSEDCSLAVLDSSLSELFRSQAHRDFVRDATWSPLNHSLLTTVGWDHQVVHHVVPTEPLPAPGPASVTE
Method: PRMT5-MEP50 Enzyme Methylation Assay (Version B)
PRMT5-MEP50 biochemical assay is a direct measurement of the methylation activity of the enzyme complex on a short peptide substrate derived from the N-terminus of H4 histone. Methylation experiment was performed with recombinant PRMT5-MEP50 protein complex. The assessment of inhibitory effect (EC50) of small molecules was measured by the effectiveness of the compounds to inhibit this reaction.
In this assay, the potency (EC50) of each compound was determined from a twenty-point (1:2 serial dilution; top compound concentration of 100000 nM) titration curve using the following outlined procedure. To each well of a white ProxiPlus 384 well-plate, 100 nL of compound (1% DMSO in final assay volume of 10 μL) was dispensed, followed by the addition of 8 μL of 1× assay buffer (50 mM Bicine pH 8.0, 1 mM DTT, 0.004% Tween20, 0.01% BSA) containing 0.625 nM of Full-length (FL)-PRMT5-MEP50 enzyme complex (recombinant proteins from baculovirus-transfected Sf21 cells: FL-PRMT5; MW=[…] and FL-MEP50; MW=38614). Plates were sealed and placed in a 37° C. humidified chamber for 30 minutes pre-incubation with compounds. Subsequently, each reaction was initiated by the addition of 2 μL 1× assay buffer containing 375 nM biotinylated H4R3 (MeI) peptide, and 75 μM S-(5′-Adenosyl)-L-Methionine Chloride (SAM). The final reaction in each well of 10 μL consists of 0.5 nM PRMT5-MEP50, 75 nM biotinylated-peptide, and 15 μM SAM. Methylation reactions were allowed to proceed for 150 minutes in a sealed plate at 37° C. Reactions were immediately quenched by the addition of 1 μL of 10% formic acid. Plates were then frozen and shipped to SAMDI™ Tech Inc. to determine the percent conversion from […]. Dose-response curves were generated by plotting percent effect (% product conversion; Y-axis) vs. Log 10 compound concentrations (X-axis). EC50 values were determined by non-linear regression according to models for either sigmoidal (4 parameters) or biphasic (7 parameters) dose-response curves.

PRMT5 = target: T2, PRMT5 (Homo sapiens, UniProt O14744); assay: PRMT5 Cell Target Engagement (TE) Assay; format: cell-based; settings: MCF-7 cells, treated for 3 days, symmetric dimethylation of arginine (SDMA) by high content imaging
T2 construct: seeded with 4000 MCF-7 cells in 30 μl media; endogenous in cells; host or cells: MCF-7 cells
T2 sequence (O14744 whole entry): as the sequence (O14744 whole entry) above
T2 sequence (Q9BQA1 whole entry partner): as the sequence (Q9BQA1 whole entry partner) above
Source text: PRMT5 Cell Target Engagement (TE) Assay
The PRMT5 TE assay is a biomarker assay for identifying compounds that inhibit symmetric dimethylation of arginine (SDMA) of PRMT5 substrates. The following substrates have been reported for PRMT5: histone H2A and H4 R3, Histone H3 R2, Histone H3 R8, spliceosome Sm proteins, ribosomal protein RPS10, p53, FEN1, nucleoplasmin, nucleolin, EGFR and EBNA. The assay focuses on detecting symmetrically dimethylated nuclear proteins using high content imaging technology. Detection of the expression of symmetrically dimethylated nuclear proteins is through a mixture of primary rabbit monoclonal antibodies to SDMA (CST 13222), which in turn recognized by an Alexafluor 488 dye-conjugated anti-rabbit IgG secondary antibody. The IN Cell Analyzer 2200 or Opera-Phenix measures nuclear Alexafluor 488 fluorescent dye intensity that is directly related to the level of expression of symmetrically dimethylated nuclear proteins at the single cell level. Nuclear AF488 dye intensities are compared to the mean value for DMSO treated cells (MIN) to report percent of inhibition for each compound-treated well.
In this assay, the cell potency (EC50) of each compound was determined from a ten point (1:3 serial dilution; top compound concentration of 10000 nM) titration curve using the following outlined procedure. Each well of a BD falcon collagen coated black/clear bottom 384-well plate was seeded with 4000 MCF-7 cells in 30 μl media and allowed to attach for 5 h. Media is ATCC-formulated Eagle's Minimum Essential Medium, Catalog No. 30-2003. To make the complete growth medium, the following components were added to the base medium: 0.01 mg/mL human recombinant insulin; fetal bovine serum to a final concentration of 10%. Additional 30 μl of media containing 2× compounds were added to each well. Cells were treated for 3 days in 37° C. CO2 incubator. On day 3, cells were fixed with Cytofix, permeabilized with 0.4% Triton-X-100/Cytofix, and washed with D-PBS without Ca/Mg. Cells were blocked with Licor Odessey blocking reagent for 1 h at room temperature, followed by incubation with anti-SDMA (1:1000) antibody at 4° C. overnight. 1° antibody was removed, followed by three washings with DPBS without Ca/Mg and 0.05% Tween20. Hoechst (5 μg/mL), Cell Mask deep stain (1:2000) and Alexa488-conjugated goat anti-rabbit IgG (2 μg/mL) was added for 1 h at room temperature. A final washing step (three washes) was performed before sealing plate for imaging on In Cell Analyzer 2200 or Opera-Phenix. Images from analyzer were uploaded to Columbus (at WP or BOS) for image analysis. IC50 values were determined by 4 parameters robust fit of percent fluorescence units vs. (Log10) compound concentrations.

[2] = first of two EC50s: 7 parameters biphasic model, read-out: Enzyme Methylation Assay Version B (EC50_1)
[3] = second of two EC50s: 7 parameters biphasic model, read-out: Enzyme Methylation Assay Version B (EC50_2)
[4] = only one EC50 shown: 4 parameters single site sigmoidal model, 30 min pre-incubation, read-out: Enzyme Methylation Assay Version B (EC50)

Row | SMILES | EC50 [1, 2] [µM] | EC50 [1, 3] [µM] | EC50 (PRMT5) [µM] | EC50 [1, 4] [µM]
1 | O=C(c1cn2cc(Br)ccc2n1)N1CC[C@@H](N2CCc3ccccc3C2)[C@H](O)C1 (single isomer, unassigned) [Example 2] | 0.013 | 5.89 | 0.509 | 
2 | CC(=O)N1CCC(Nc2cc(C(=O)N3CC[C@H](N4CCc5ccccc5C4)[C@@H](O)C3)ccn2)C(F)(F)C1 (single isomer, unassigned) [Example 7] | 0.016 | 8.57 | 0.326 | 
3 | CC(=O)N1CCC(Nc2cc(C(=O)N3CC[C@@H](N4CCc5ccccc5C4)[C@H](O)C3)ccn2)C(F)(F)C1 (single isomer, unassigned) [Example 8] | ~0.571 | > 100 | 9.29 | 
4 | CC(=O)N1CCC(Nc2cc(C(=O)N3CC[C@@H](N4CCc5ccccc5C4)[C@H](O)C3)ccn2)C(F)(F)C1 (single isomer, unassigned) [Example 9] | 0.061 | 8.79 | 1.68 | 
5 | CCC1Oc2ccc(C(=O)N3CC[C@@H](N4CCc5ccccc5C4)[C@H](O)C3)cc2NC1=O (single isomer, unassigned) [Example 12] | 0.106 | 45.7 | 6.07 | 
6 | CCC1Oc2ccc(C(=O)N3CC[C@@H](N4CCc5ccccc5C4)[C@H](O)C3)cc2NC1=O (single isomer, unassigned) [Example 13] | ~0.014 | 17.6 | 0.641 | 
7 | CC(=O)N1CCC(Nc2nccc(C(=O)N3CC[C@@H](N4CCc5ccccc5C4)[C@H](O)C3)c2F)C(F)(F)C1 (single isomer, unassigned) [Example 16] | 0.16 | 83.2 | 5.73 | 
8 | CC(=O)N1CCC(Nc2nccc(C(=O)N3CC[C@@H](N4CCc5ccccc5C4)[C@H](O)C3)c2F)C(F)(F)C1 (single isomer, unassigned) [Example 17] | ~0.191 | > 100 | 8.42 | 
9 | CC(=O)N1CCC(Nc2cc(C(=O)N3CCC(N4CCc5ccccc5C4)C(O)C3C)ccn2)CC1 (single isomer, unassigned) [Example 21, 1-(4-((4-(4-(3,4-dihydroisoquinolin-2(1H)-yl)-3-hydroxy-2-methylpiperidine-1-carbonyl)pyridin-2-yl)amino)piperidin-1-yl)ethan-1-one] | ~0.056 | 25.4 | 1.58 | 
10 | CC(=O)N1CCC(Nc2cc(C(=O)N3CCC(N4Cc5ccccc5C(F)(F)C4)C(O)C3)c(F)cn2)CC1 (single isomer, unassigned) [Example 24, 1-(4-((4-(-4-(4,4-difluoro-3,4-dihydroisoquinolin-2(1H)-yl)-3-hydroxypiperidine-1-carbonyl)-5-fluoropyridin-2-yl)amino)piperidin-1-yl)ethan-1-one] |  |  | > 10 | 5.56
11 | CC(=O)N1CCC(Nc2cc(C(=O)N3CCC(N4Cc5ccccc5C(F)(F)C4)C(O)C3)c(Cl)cn2)CC1 (single isomer, unassigned) [Example 25, l-(4-((5-chloro-4-(-4-(4,4-difluoro-3,4-dihydroisoquinolin-2(1H)-yl)-3-hydroxypiperidine-1-carbonyl)pyridin-2-yl)amino)piperidin-1-yl)ethan-1-one] | 0.841 | 33.9 | > 10 | 
12 | O=C(c1ccc(OCC(F)(F)F)nc1)N1CCC(N2Cc3ccccc3C(F)(F)C2)C(O)C1 (single isomer, unassigned) [Example 26, (-4-(4,4-difluoro-3,4-dihydroisoquinolin-2(1H)-yl)-3-hydroxypiperidin-1-yl)(6-(2,2,2-trifluoroethoxy)pyridin-3-yl)methanone] |  |  | > 10 | 15.2
13 | CC(=O)N1CCC(Nc2cc(C(=O)N3CCC(N4Cc5ccccc5C(F)(F)C4)C(O)C3)c(F)cn2)CC1 (single isomer, unassigned) [Example 27, 1-(4-((5-fluoro-4-(-4-(4,4-difluoro-3,4-dihydroisoquinolin-2(1H)-yl)-3-hydroxypiperidine-1-carbonyl)pyridin-2-yl)amino)piperidin-1-yl)ethan-1-one] |  |  | > 10 | 0.809
14 | CC(=O)N1CCC(Nc2cc(C(=O)N3CCC(N4Cc5ccccc5C(F)(F)C4)C(O)C3)c(Cl)cn2)CC1 (single isomer, unassigned) [Example 28, l-(4-((5-chloro-4-(-4-(4,4-difluoro-3,4-dihydroisoquinolin-2(lH)-yl)-3-hydroxypiperidine-1 - carbonyl)pyridin-2-yl)amino)piperidin-1-yl)ethan-1-one] | 1.27 | 45.2 | 1.66 | 

Now those with a lower EC50 (PRMT5), led by results:

Row | EC50 [1, 2] [µM] | EC50 [1, 3] [µM] | EC50 (PRMT5) [µM] | EC50 [1, 4] [µM] | SMILES
15 | 0.0048 | 2.69 | 0.024 |  | CC(=O)N1CCC(Nc2cc(C(=O)N3CC[C@H](N4CCc5ccccc5C4)[C@@H](O)C3)ccn2)C(F)(F)C1 (single isomer, unassigned) [Example 6]
16 | 0.0064 | 4.62 | 0.119 |  | CCC1Oc2ccc(C(=O)N3CC[C@H](N4CCc5ccccc5C4)[C@@H](O)C3)cc2NC1=O (single isomer, unassigned) [Example 10]
17 | 0.0018 | 1.07 | 0.0049 |  | CCC1Oc2ccc(C(=O)N3CC[C@H](N4CCc5ccccc5C4)[C@@H](O)C3)cc2NC1=O (single isomer, unassigned) [Example 11]
18 | ~0.02 | 17.2 | 0.275 |  | CC(=O)N1CCC(Nc2nccc(C(=O)N3CC[C@H](N4CCc5ccccc5C4)[C@@H](O)C3)c2F)C(F)(F)C1 (single isomer, unassigned) [Example 14]
19 | 0.0068 | 3.72 | 0.057 |  | CC(=O)N1CCC(Nc2nccc(C(=O)N3CC[C@H](N4CCc5ccccc5C4)[C@@H](O)C3)c2F)C(F)(F)C1 (single isomer, unassigned) [Example 15]
20 | 0.0044 | 1.5 | 0.012 |  | CC(=O)N1CCC(Nc2cc(C(=O)N3CCC(N4CCc5ccccc5C4)C(O)C3C)ccn2)CC1 (single isomer, unassigned) [Example 20, l-(4-((4-(4-(3,4-dihydroisoquinolin-2(1H)-yl)-3-hydroxy-2-methylpiperidine-1-carbonyl)pyridin-2-yl)amino)piperidin-1-yl)ethan-1-one]
